The source of these data is patent US7230002B2, “Dipeptidyl peptidase IV inhibitors; processes for their preparation and compositions thereof” (Glenmark Pharmaceuticals Ltd., priority 2004, dated 2007).

Structures can show the parent of a compound that is named as a salt.

T1 sequence (P27487 whole entry): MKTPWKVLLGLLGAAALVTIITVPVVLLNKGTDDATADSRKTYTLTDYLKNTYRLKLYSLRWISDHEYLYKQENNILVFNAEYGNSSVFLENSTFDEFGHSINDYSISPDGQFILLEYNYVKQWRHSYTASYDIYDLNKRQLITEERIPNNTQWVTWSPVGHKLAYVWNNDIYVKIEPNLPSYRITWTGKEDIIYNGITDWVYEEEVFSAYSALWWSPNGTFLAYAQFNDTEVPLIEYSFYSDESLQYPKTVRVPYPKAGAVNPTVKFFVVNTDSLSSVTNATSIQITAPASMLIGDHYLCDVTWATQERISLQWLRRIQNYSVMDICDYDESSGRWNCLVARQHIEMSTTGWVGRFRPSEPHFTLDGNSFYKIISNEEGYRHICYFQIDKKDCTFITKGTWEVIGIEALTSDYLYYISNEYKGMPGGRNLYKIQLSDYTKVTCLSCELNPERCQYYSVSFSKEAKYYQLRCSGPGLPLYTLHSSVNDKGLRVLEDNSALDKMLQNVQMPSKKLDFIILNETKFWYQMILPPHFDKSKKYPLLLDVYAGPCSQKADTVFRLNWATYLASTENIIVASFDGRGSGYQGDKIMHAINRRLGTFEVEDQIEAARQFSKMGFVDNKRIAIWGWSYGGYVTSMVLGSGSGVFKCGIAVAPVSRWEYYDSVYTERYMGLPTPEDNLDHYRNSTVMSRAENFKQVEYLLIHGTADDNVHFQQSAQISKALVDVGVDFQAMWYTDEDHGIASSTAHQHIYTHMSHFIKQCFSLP

The first experiment has as its target T1, human recombinant Dipeptidyl peptidase IV enzyme (Homo sapiens, UniProt P27487).
T1 construct: purchased R & D Systems
The experiment can be described thus: In-vitro DPP-IV assay (cleavage of Gly-Pro-AMC). It is filed as biochemical. The following applies: at 300 nM, n = 3, read-out: DPP-IV inhibition, percent inhibition at 300 nM. Here is the method: Protocol for In-Vitro DPP-IV Assay
DPPIV activity was determined by the cleavage rate of 7-amino-4-methyl coumarin (AMC) from synthetic substrate Glycyl-Prolyl-AMC. In brief, the assay was conducted by adding 10 ng of human recombinant Dipeptidyl peptidase IV enzyme (DPPIV, available commercially from R & D Systems) in 50 μl of the assay buffer (25 mM Tris, pH 7.4, 140 mM NaCl, 10 mM KCl, 1% BSA) to 96 well black flat bottom microtiter plates. The reaction was initiated by adding 50 μl of 100 μM substrate Gly-Pro-AMC. The incubation was carried out in the kinetic mode at 30° C. for 30 minutes. Fluorescence was measured using Fluorostar at excitation filter of 380 nm and emission filter of 460 nm). Test compounds and solvent controls were added as 1 μl additions. A standard curve of free amino methyl coumarin (AMC) was generated using 0–100 μM AMC in the assay buffer. The curve generated, which was linear was used for the interpolation of catalytic activity.
Test compounds dissolved in DMSO at 5–6 concentrations were tested in duplicate along with the solvent control and blank samples. Percent inhibition was calculated at each concentration with respect to the solvent control sample (no test compound added). IC50 values were calculated from 3 experiments using the prism software.
For the compound `N#Cc1ccc(NCC2CCC(NCC(=O)N3CCCC3)C2)nc1` (racemic) [Example-1, cis-(±)-6-(3-[2-(1-Pyrrolidinyl)-2-oxoethylamino]cyclopentylmethylamino)nicotino-nitrile], the inhibition at 0.3 µM worked out at 6%.
As for `N#Cc1ccc(NCC2CCC(NCC(=O)N3CCSC3)C2)nc1` (stereo not shown) [Example-2], the inhibition at 0.3 µM is 17%.

The experiment is the same for the next values; noted with them: n = 3, substrate Gly-Pro-AMC, 30° C., 30 minutes, read-out: DPP-IV inhibition IC50.
Regarding `N#Cc1ccc(NCC2CCC(NCC(=O)N3C[C@@H](F)C[C@H]3C#N)C2)nc1` (mixture of isomers) [Example-14, 6-((1SR,3RS)-3-{2-[(2S,4S)-2-Cyano-4-fluoropyrrolidin-1-yl]-2-oxoethylamino}-cyclopentylmethylamino)nicotinonitrile], the 50% inhibitory concentration (IC50) was determined as 3.58 nM.
For the compound `N#C[C@@H]1CCCN1C(=O)CNC1CCC(CNc2ncccn2)C1` (mixture of isomers) [Example-18, (2S)-1-{2-[(3SR,1RS)-3-(2-Pyrimidinylaminomethyl)cyclopentylamino)acetyl}-pyrrolidine-2-carbonitrile], the IC50 was 9.8 nM.
Consider `N#C[C@@H]1CCCN1C(=O)CNC1CCC(CNc2ncccn2)C1` (mixture of isomers) [Example-19, (2S)-1-{2-[(3SR,1RS)-3-(2-Pyrimidinylaminomethyl)cyclopentylamino)acetyl}-pyrrolidine-2-carbonitrile dihydrochloride], for which the IC50 stood at 20 nM.
Regarding `N#C[C@@H]1CCCN1C(=O)CNC1CCC(CNc2ccc([N+](=O)[O-])c(Cl)c2)C1` (mixture of isomers) [Example-23, (2S)-1-{2-[(3SR,1RS)-3-(3-Chloro-4-nitroanilinomethyl)cyclopentylamino]acetyl}-pyrrolidine-2-carbonitrile], the 50% inhibitory concentration (IC50) came out at 14.6 nM.
As for `N#C[C@@H]1CCCN1C(=O)CNC1CCC(CNc2ccc([N+](=O)[O-])cc2F)C1` (mixture of isomers) [Example-24, (2S)-1-{2-[(3SR,1RS)-3-(2-Fluoro-4-nitroanilinomethyl)cyclopentylamino]acetyl}-pyrrolidine-2-carbonitrile], the IC50 worked out at 6.29 nM.
`N#C[C@@H]1CCCN1C(=O)CNC1CCC(CNc2cc(F)c(F)cc2F)C1` (mixture of isomers) [Example-27, (2S)-1-{2-[(3SR,1RS)-3-(2,4,5-Trifluoroanilinomethyl)cyclopentylamino]acetyl}-pyrrolidine-2-carbonitrile]: the half-maximal inhibitory concentration (IC50) came out at 17.4 nM.
The same measure, in the same setting: with `N#C[C@@H]1CCCN1C(=O)CNC1CCC(CSc2ccccc2)C1` (mixture of isomers) [Example-28, (2S)-1-{2-[(3SR,1RS)-3-Phenylsulfanylmethylcyclopentylamino]acetyl}-pyrrolidine-2-carbonitrile] the figure was 22.3 nM.
For `N#Cc1ccc(SCC2CCC(NCC(=O)N3CCC[C@H]3C#N)C2)nc1` (mixture of isomers) [Example-38, 6-((1SR,3RS)-3-{2-[(2S)-2-Cyanopyrrolidin-1-yl]-2-oxoethylamino}cyclopentyl-methylsulfanyl)nicotinonitrile], the IC50 was found to be 9.42 nM.
On to `N#Cc1ccc(S(=O)(=O)CC2CCC(NCC(=O)N3CCC[C@H]3C#N)C2)nc1` (mixture of isomers) [Example-40, 6-((1SR,3RS)-3-{2-[(2S)-2-Cyanopyrrolidin-1-yl)-2-oxoethylamino}cyclopentyl-methylsulfonyl)nicotinonitrile], for which the half-maximal inhibitory concentration (IC50) was found to be 78.7 nM.
On the same count and under the same terms, with `N#Cc1ccc(NCC2CCC(NCC(=O)N3CCC[C@H]3C#N)C2)nc1` (mixture of isomers) [Example-3, 6-((1SR,3RS)-3-{2-[(2S)-2-Cyanopyrrolidin-1-yl]-2-oxoethylamino}cyclopentyl-methylamino)nicotinonitrile] the figure was 6.29 nM.
`N#Cc1ccc(NCC2CCC(NCC(=O)N3CCC[C@H]3C#N)C2)nc1` (mixture of isomers) [Example-4, 6-((1SR,3RS)-3-{2-[(2S)-2-Cyanopyrrolidin-1-yl]-2-oxoethylamino}cyclopentyl-methylamino)nicotinonitrile dihydrochloride]: the half-inhibitory concentration (IC50) was 10 nM.
In the case of `N#Cc1ccc(NCC2CCC(NCC(=O)N3CCC[C@H]3C#N)C2)nc1` (mixture of isomers) [Example-5, 6-((1SR,3RS)-3-{2-[(2S)-2-Cyanopyrrolidin-1-yl]-2-oxoethylamino}cyclopentyl-methylamino)nicotinonitrile maleate], the half-maximal inhibitory concentration (IC50) is 10.3 nM.
Consider `N#Cc1ccc(NCC2CCC(NCC(=O)N3CCC[C@H]3C#N)C2)nc1` (mixture of isomers) [Example-7, 6-((1SR,3RS)-3-{2-[(2S)-2-Cyanopyrrolidin-1-yl]-2-oxoethylamino}cyclopentyl-methylamino)nicotinonitrile citrate], for which the IC50 turned out to be 11.7 nM.
Consider `N#Cc1ccc(NCC2C=CC(NCC(=O)N3CCC[C@H]3C#N)C2)nc1` (mixture of isomers) [Example-12], for which the half-inhibitory concentration (IC50) is 11.2 nM.
As to `N#Cc1ccc(NC[C@@H]2CC[C@@H](NCC(=O)N3CCC[C@H]3C#N)C2)nc1` (racemic) [Example-13, 6-((1RS,3RS)-3-{2-[(2S)-2-Cyanopyrrolidin-1-yl]-2-oxoethylamino}cyclopentyl-methylamino)nicotinonitrile], the half-maximal inhibitory concentration (IC50) stood at 12.1 nM.
On the same count and under the same terms, with `N#Cc1ccc(NCC2CCC(NCC(=O)N3CSC[C@H]3C#N)C2)nc1` (mixture of isomers) [Example-16, (4S)-3-{2-(1SR,3RS)-3-[(5-Cyano-2-pyridylaminomethyl)cyclopentylamino]acetyl}-1,3-thiazolane-4-carbonitrile dihydrochloride] the figure was 2.76 nM; with `N#Cc1ccc(NC[C@@H]2CC[C@@H](NCC(=O)N3CSC[C@H]3C#N)C2)nc1` (racemic) [Example-17, (4S)-3-{2-(1RS,3RS)-3-[(5-Cyano-2-pyridylaminomethyl)cyclopentylamino]acetyl}-1,3-thiazolane-4-carbonitrile dihydrochloride], 2.93 nM.
For the compound `N#C[C@@H]1CCCN1C(=O)CNC1CCC(CS(=O)(=O)c2ccccc2)C1` (mixture of isomers) [Example-29], the half-inhibitory concentration (IC50) worked out at 10 nM.
For the compound `N#Cc1ccc(SCC2CCC(NCC(=O)N3CCC[C@H]3C#N)C2)nc1` (mixture of isomers) [Example-39, 6-((1SR,3RS)-3-{2-[(2S)-2-Cyanopyrrolidin-1-yl]-2-oxoethylamino}cyclopentyl-methylsulfanyl)nictinonitrile maleate], the concentration for half-maximal inhibition (IC50) is 11.1 nM.
Still for that read-out and setting: with `N#C[C@@H]1CCCN1C(=O)CNC1CCC(COc2ccc([N+](=O)[O-])cc2)C1` (mixture of isomers) [Example-43, (2S)-1-{2-[(3SR,1RS)-3-(4-Nitrophenoxymethyl)cyclopentylamino]acetyl}-pyrro-lidine-2-carbonitrile] the figure was 35.9 nM; with `N#Cc1ccc(NC[C@H]2CC[C@@H](NCC(=O)N3CCC[C@H]3C#N)C2)nc1` [Example-8, 6-((1S,3R)-3-{2-[(2S)-2-Cyanopyrrolidin-1-yl]-2-oxoethylamino}cyclopentylmethyl-amino)nicotinonitrile], 10.6 nM.
The same measure, in the same setting: with `N#Cc1ccc(NC[C@H]2CC[C@@H](NCC(=O)N3CCC[C@H]3C#N)C2)nc1` [Example-9, 6-((1S,3R)-3-{2-[(2S)-2-Cyanopyrrolidin-1-yl]-2-oxoethylamino}cyclopentylmethyl-amino)nicotinonitrile dihydrochloride] the figure was 6.27 nM; with `N#Cc1ccc(NC[C@@H]2CC[C@H](NCC(=O)N3CCC[C@H]3C#N)C2)nc1` [Example-10, 6-((1R,3S)-3-{2-[(2S)-2-Cyanopyrrolidin-1-yl]-2-oxoethylamino}cyclopentylmethyl-amino)nicotinonitrile], 7.81 nM.
